Measurements: ChEMBL document CHEMBL4340511, “22-Oxocholestane oximes as potential anti-inflammatory drug candidates” (Eur J Med Chem, 2019)
Active and inactive are the calls of the source. No cut-off for these calls is given here.

Columns and labels:
Type in all cases: functional, organism-based
Mus musculus [1] = experiment: Antiinflammatory activity in CD1 mouse model of TPA-induced ear edema assessed as decrease in IFNgamma expression at 250 ug/ear, each surface administered topically for 15 mins prior to TPA challenge and measured after 6 hrs by qRT-PCR analysis
Mus musculus [2] = experiment: Antiinflammatory activity in CD1 mouse assessed as reduction in TPA-induced ear flushing at 250 ug/ear, each surface administered topically for 15 mins prior to TPA challenge and measured after 6 hrs
Mus musculus [3] = experiment: Antiinflammatory activity in CD1 mouse model of TPA-induced ear edema assessed as decrease in MIF expression at 250 ug/ear, each surface administered topically for 15 mins prior to TPA challenge and measured after 6 hrs by qRT-PCR analysis
Mus musculus [4] = experiment: Antiinflammatory activity in CD1 mouse model of TPA-induced ear edema assessed as decrease in IL-6 expression at 250 ug/ear, each surface administered topically for 15 mins prior to TPA challenge and measured after 6 hrs by qRT-PCR analysis
Mus musculus [5] = experiment: Antiinflammatory activity in CD1 mouse model of TPA-induced ear edema assessed as decrease in COX-2 expression at 250 ug/ear, each surface administered topically for 15 mins prior to TPA challenge and measured after 6 hrs by qRT-PCR analysis
Mus musculus [6] = experiment: Antiinflammatory activity in CD1 mouse model of TPA-induced ear edema assessed as decrease in TNFalpha expression at 250 ug/ear, each surface administered topically for 15 mins prior to TPA challenge and measured after 6 hrs by qRT-PCR analysis
Mus musculus [7] = experiment: Antiinflammatory activity against TPA-induced ear edema in CD1 mouse assessed as reduction in weight of ear punches at 225 ug/ear, each surface administered topically for 15 mins prior to TPA challenge and measured after 6 hrs
Mus musculus [8] = experiment: Antiinflammatory activity against TPA-induced ear edema in CD1 mouse assessed as reduction in ear edema at 225 ug/ear, each surface administered topically for 15 mins prior to TPA challenge and measured after 6 hrs
Mus musculus [9] = experiment: Antiinflammatory activity against TPA-induced ear edema in CD1 mouse assessed as reduction in weight of ear punches at 125 ug/ear, each surface administered topically for 15 mins prior to TPA challenge and measured after 6 hrs
Mus musculus [10] = experiment: Antiinflammatory activity in CD1 mouse model of TPA-induced ear edema assessed as decrease in COX-2 expression at 125 ug/ear, each surface administered topically for 15 mins prior to TPA challenge and measured after 6 hrs by qRT-PCR analysis
Mus musculus [11] = experiment: Antiinflammatory activity in CD1 mouse model of TPA-induced ear edema assessed as decrease in IL-6 expression at 125 ug/ear, each surface administered topically for 15 mins prior to TPA challenge and measured after 6 hrs by qRT-PCR analysis
Mus musculus [12] = experiment: Antiinflammatory activity in CD1 mouse model of TPA-induced ear edema assessed as decrease in MIF expression at 125 ug/ear, each surface administered topically for 15 mins prior to TPA challenge and measured after 6 hrs by qRT-PCR analysis
Mus musculus [13] = experiment: Antiinflammatory activity in CD1 mouse model of TPA-induced ear edema assessed as decrease in TNFalpha expression at 125 ug/ear, each surface administered topically for 15 mins prior to TPA challenge and measured after 6 hrs by qRT-PCR analysis
Mus musculus [14] = experiment: Antiinflammatory activity in CD1 mouse model of TPA-induced ear edema assessed as decrease in IFNgamma expression at 125 ug/ear, each surface administered topically for 15 mins prior to TPA challenge and measured after 6 hrs by qRT-PCR analysis
Mus musculus [15] = experiment: Antiinflammatory activity in CD1 mouse assessed as reduction in TPA-induced ear flushing at 125 ug/ear, each surface administered topically for 15 mins prior to TPA challenge and measured after 6 hrs
Mus musculus [16] = experiment: Antiinflammatory activity against TPA-induced ear edema in CD1 mouse assessed as reduction in ear edema at 125 ug/ear, each surface administered topically for 15 mins prior to TPA challenge and measured after 6 hrs

| Structure (SMILES) | Activity (Mus musculus [1]) | Activity (Mus musculus [2]) | Activity (Mus musculus [3]) | Activity (Mus musculus [4]) | Activity (Mus musculus [5]) | Activity (Mus musculus [6]) | Activity (Mus musculus [7]) | Activity (Mus musculus [8]) | Activity (Mus musculus [9]) | Activity (Mus musculus [10]) | Activity (Mus musculus [11]) | Activity (Mus musculus [12]) | Activity (Mus musculus [13]) | Activity (Mus musculus [14]) | Activity (Mus musculus [15]) | Activity (Mus musculus [16]) |
| --- | --- | --- | --- | --- | --- | --- | --- | --- | --- | --- | --- | --- | --- | --- | --- | --- |
| C[C@@H]1C[C@H]2[C@@H]3CCC4=CC(=O)C=C[C@]4(C)[C@@]3(F)[C@@H](O)C[C@]2(C)[C@@]1(O)C(=O)CO | inactive | inactive | Active | Active | Active | Active | Active | Active | – | – | – | – | – | – | – | – |
| CC(=O)O[C@H]1CC[C@@]2(C)C(=CC[C@H]3[C@@H]4C[C@H](OC(C)=O)[C@H]([C@H](C)C(=O)CC[C@H](C)/C=N/O)[C@@]4(C)CC[C@@H]32)C1 | – | – | – | – | – | – | – | – | Active | Active | Active | Active | Active | inactive | inactive | Active |
| CC(=O)O[C@H]1C[C@H]2[C@@H]3CC=C4C[C@@H](O)CC[C@]4(C)[C@H]3CC[C@]2(C)[C@H]1[C@H](C)C(=O)CC[C@@H](C)/C=N/O | – | – | – | – | – | – | – | – | inactive | – | – | – | – | – | – | – |
| CC(=O)O[C@H]1C[C@H]2[C@@H]3CC=C4C[C@@H](O)CC[C@]4(C)[C@H]3CC[C@]2(C)[C@H]1[C@H](C)C(=O)CC[C@H](C)/C=N/O | – | – | – | – | – | – | – | – | Active | Active | Active | Active | Active | inactive | inactive | Active |
| CC(=O)O[C@H]1CC[C@@]2(C)C(=CC[C@H]3[C@@H]4C[C@H](OC(C)=O)[C@H]([C@H](C)C(=O)CC[C@@H](C)/C=N/O)[C@@]4(C)CC[C@@H]32)C1 | – | – | – | – | – | – | – | – | inactive | – | – | – | – | – | – | – |
| CC(=O)O[C@H]1C[C@H]2[C@@H]3CC=C4C[C@@H](O)CC[C@]4(C)[C@H]3CC[C@]2(C)[C@H]1[C@H](C)C(=O)CC/C(C)=N/O | – | – | – | – | – | – | – | – | Active | Active | Active | Active | Active | inactive | inactive | Active |
